Structures can show the parent of a compound that is named as a salt.
Molecular target: T1, human recombinant chemokine CCR8 receptor (Homo sapiens, UniProt P51685)
T1 construct: purchased Euroscreen ES-136-M; host or cells: CHO-K1 cells (membrane preparation)
Assay: CCL1 SPA Binding Assay
Conditions: 125I CCL1 (30 pM) binding to membranes from CHO-K1 cells transfected with CCR8, Wheat Germ Agglutinin SPA beads; typical data
Experimental: Membranes from CHO-K1 cells transfected with human recombinant chemokine CCR8 receptor (ES-136-M) were purchased from Euroscreen. Membrane preparations are stored at −70C in 7.5 mM Tris-Cl pH 7.5, 12.5 mM MgCl2, 0.3 mM EDTA, 1 mM EGTA, 250 mM sucrose until used.
The CCR8 membranes ([…]) were preincubated with Wheat Germ Agglutinin SPA beads (4.05 mg/ml) in assay buffer (50 mM HEPES, 1 mM CaCl2x2H2O, 5 mM MgCl2x6H2O, 75 mM NaCl, 0.1% BSA) at pH=7.4 for 2 hours on ice. A 10-point dose-response curve (final concentrations 50 μM, 16.7 μM, 5.6 μM, 1.9 μM, 0.62 μM, 0.21 μM, 0.069 μM, 0.023 μM) was prepared by diluting compounds by serial dilution 1:3 in DMSO. In the screening plate (Polystyrene NBS plates, Costar Corning 3604) 1 μl from the DMSO solutions of compounds was transferred into each well. 1 μl of DMSO was added to the blank control wells and 1 μl unlabeled CCL1 (300 nM) was added to background control wells. 50 μl of the SPA bead-membrane mixture was added into each well. Finally, 50 μl (30 pM) ^125I CCL1 (2000 Ci/mM) was added to each well. Plates were then incubated at RT with shaking (700 rpm) for 90 minutes followed by 30 minutes at RT without shaking. The plate was read in a Wallac MicroBeta counter for 2 minutes/well.

T1 sequence (P51685 whole entry): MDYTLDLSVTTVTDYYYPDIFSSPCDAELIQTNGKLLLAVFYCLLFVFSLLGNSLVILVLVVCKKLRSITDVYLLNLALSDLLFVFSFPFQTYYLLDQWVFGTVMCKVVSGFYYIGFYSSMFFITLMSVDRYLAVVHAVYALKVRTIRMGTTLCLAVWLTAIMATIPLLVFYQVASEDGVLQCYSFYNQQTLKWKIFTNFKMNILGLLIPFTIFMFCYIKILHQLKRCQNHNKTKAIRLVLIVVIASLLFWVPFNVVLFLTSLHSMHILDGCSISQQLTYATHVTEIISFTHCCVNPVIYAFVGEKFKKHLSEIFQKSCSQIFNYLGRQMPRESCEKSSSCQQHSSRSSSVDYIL

SMILES	IC50 [µM]
Cc1noc(C)c1COc1ccccc1CN1CCC2(CC1)CCN(C(=O)c1ccccc1)CC2 [3-benzoyl-9-{2-[(3,5-dimethylisoxazol-4-yl)methoxy]benzyl}-3,9-diazaspiro[5.5]undecane trifluoroacetate]	0.71
CCCOc1ccccc1CN1CCC2(CC1)CCN(C(=O)c1ccccc1)CC2 [3-benzoyl-9-(2-propoxybenzyl)-3,9-diazaspiro[5.5]undecane trifluoroacetate]	0.165

Reference: patent US20070249648A1, “Novel Diazaspiroalkanes and Their Use for Treatment of Ccr8 Mediated Diseases” (priority 2003, published 2007)
